Measured values: US9567586B2, “EpCAM aptamer for detection of cancer stem cells” (DEAKIN UNIVERSITY, priority 2012, dated 2017)

What was measured:
[1] = test system: PLC/PRF/5 hepatocellular carcinoma cell line; test: Tumoursphere formation in 96-well, PLC/PRF/5; assay type: cell-based, human
HT29 colon cancer cells = test: Tumoursphere formation in 96-well, HT29; assay type: cell-based, human; conditions: HT29, 3 μM Dox equivalent, 5 days
Description: Under non-adherent and serum-free conditions, only the cancer stem cells (CSCs) and progenitor cells survive and undergo self-renewal as well as proliferate to form tumour spheres. The inventor studied the ability of aptamer-Dox to target cancer stem cells by plating various cell doses of single-cell suspension of HT29 colon cancer cells in ultra-low attachment 96-wells in the presence of 3 μM of free Dox, 3 μM equivalent Dox conjugated with aptamer, 3 μM Dox-negative control aptamer or vehicle control for 5 days. Tumour spheres (with a size >50 μm) were enumerated.

Measured: Number of wells with sphere

CC[C@@H](C(=O)[C@@H](C)[C@@H](O)[C@H](C)[C@@H]1O[C@@H]([C@@H](CC)C(=O)O)CC[C@@H]1C)[C@H]1O[C@]2(C=C[C@@H](O)[C@]3(CC[C@@](C)([C@H]4CC[C@](O)(CC)[C@H](C)O4)O3)O2)[C@H](C)C[C@@H]1C [Saline, Salinomycin]
2/10: HT29 colon cancer cells; 200 cells seeded/well
0/10: [1]; 1 cell seeded/well | [1]; 10 cells seeded/well | [1]; 100 cells seeded/well | [1]; 200 cells seeded/well | HT29 colon cancer cells; 1 cell seeded/well | HT29 colon cancer cells; 10 cells seeded/well | HT29 colon cancer cells; 100 cells seeded/well
